From patent US20220175859A1, “Tetraselmis Extract” (SYMRISE AG, priority 2018, published 2022)

Legend:
Assay type in all cases: cell-based
human sebaceous glands [1] = assay: Viability test (resazurin) of micro-dissected human sebaceous glands
Protocol: To better understand the response to the extract, a viability test was performed in parallel at day 1 and day 6 of organ culture. Resazurin was added to the wells (1:11) and let incubate for 2 hours. At the end of the incubation an aliquot of the medium was read with a fluorometer (excitation: 560 nm, emission: 590 nm). The medium was then replaced with normal medium for 2 hours in order to eliminate residual resazurin. After this the medium was replaced again with medium containing the test samples. The viability in each well was measured as the difference in percentage between day 6 and day 1.
The same experimental set-up as described in Example 3 was used to evaluate the combination of Tetraselmis suecica extract and niacinamide for synergistic activity.

human sebaceous glands [2] = assay: Total lipid content of micro-dissected ex vivo human sebaceous glands (organ culture); conditions: extract 0.3 ppm, Capsaicin 5 μM (=1.5 ppm), lipids normalized to proteins
Protocol: Organ culture of human sebaceous glands micro-dissected from human skin explants was performed to evaluate the modulatory activity of Tetraselmis suecica extract prepared according to the description given in Example 1 on the sebum level. The extract is employed in the dried form. After removal of the epidermis of the full thickness skin sample, the sebaceous glands were carefully removed using micro-scissors and scalpel. The micro-dissected sebaceous glands were then pooled in groups of 8 and cultured up to day 6 in a 24 well plate immersed in 500 μl of modified Williams' E medium. After 24 hours of acclimation the culture medium was changed and substituted with the medium containing the extract to be tested. The medium was renewed at day 3 and 5 of culture. At day 6 the glands were collected and used for the quantification of lipids and proteins. […] To do so, each sebaceous glands group was homogenized in 100 μl of isopropyl alcohol to extract lipids and let the proteins undissolved. After centrifugation the supernatant containing the extracted sebum was collected and analyzed. The remaining pellet was dried using a vacuum dry evaporator and then minced in presence of 50 μl of protein lysis buffer. After an appropriate incubation time, this extractive mixture was centrifuged, and the supernatant was collected and analyzed. The lipids dissolved in isopropyl alcohol and the proteins dissolved in the lysis buffer were quantified by infrared spectroscopy using a Direct Detect IR Spectrometer (Millipore). The total lipid amount was obtained by normalizing the quantified lipids upon the quantified proteins (i.e. mg of lipids/mg of proteins). The amounts of normalized lipids, i.e. the sebum produced by each group of sebaceous glands, obtained from the treated groups was compared to that of the untreated control group and the modulatory activity was calculated in percentage. […] For statistical analysis, differences among groups were evaluated by one-way anova with permutation test followed by Dunnett's permutation test. […]

human sebaceous glands [3] = assay: Synergistic effect of Tetraselmis suecica extract and niacinamide on total lipid content of ex vivo human sebaceous glands (Kull's equation); conditions: Donor 1 (Example 4); 0.3 ppm extract, 100 ppm niacinamide, or 0.15 ppm extract + 50 ppm niacinamide
Excerpt: Kull's equation for calculation of the synergism index SI was used:
A=lipid reduction by Tetraselmis suecica extract at concentration x B=lipid reduction by niacinamide at concentration y C=lipid reduction by the combination of Tetraselmis suecica extract at concentration x/2 and niacinamide at concentration y/2 D=Factor for Tetraselmis suecica extract=>0.5 (due to half concentration tested in the combination) E=Factor for niacinamide=>0.5 (due to half concentration tested in the combination) A SI=1 is obtained for additive activity of the two combined components, whereas a SI<1 proves antagonistic activity (observed efficacy is lower than additive) and SI>1 proves synergistic activity (observed efficacy is higher than additive).

Row | Compound | Viability (human sebaceous glands [1]; Donor 1, day 6 versus day 1, extract 0.3 ppm, Capsaicin 5 μM (1.5 ppm), untreated 93) [%] | Viability (human sebaceous glands [1]; Donor 2, day 6 versus day 1, extract 0.3 ppm, Capsaicin 5 μM (1.5 ppm), untreated 100) [%] | Viability (human sebaceous glands [1]; Donor 3, day 6 versus day 1, extract 0.3 ppm, Capsaicin 5 μM (1.5 ppm), untreated 81) [%] | Reduction of lipids at day 6 versus untreated (human sebaceous glands [2]; Donor 1) [%] | Reduction of lipids at day 6 versus untreated (human sebaceous glands [2]; Donor 2) [%] | Reduction of lipids at day 6 versus untreated (human sebaceous glands [2]; Donor 3) [%] | Viability (human sebaceous glands [1]; Donor 1 (Example 4), 0.3 ppm extract, 100 ppm niacinamide, or 0.15 ppm extract + 50 ppm niacinamide, untreated 81) [%] | Reduction of lipids at day 6 versus untreated (human sebaceous glands [3]) [%]
1 | COc1cc(CNC(=O)CCCC/C=C/C(C)C)ccc1O [Capsaicin] | 92 | 99 | 85 | 11 | 28 | 14 | – | –
2 | NC(=O)c1cccnc1 [niacinamide, Niacinamide] | – | – | – | – | – | – | 78 | 6
